The pEC50 is −log10 of the EC50, conventionally taken in molar units. What is called inhibition is the drop in the measured response relative to a control, in per cent.

The subject of data set [1] is Plasmodium falciparum. Nature of the data set: Antimalarial activity against asexual blood stage of Plasmodium falciparum assessed as inhibition of mature schizonts development at EC50 observed at 48 hrs post invasion. In kind it is functional, organism-based.
Data set [2] concerns Plasmodium falciparum. Nature of the data set: Antimalarial activity against Plasmodium falciparum 3D7 assessed as parasite growth inhibition incubated for 48 hrs by SYBR green DNA fluorescent dye-binding assay. In kind it is functional, organism-based. To be noted: 3D7, 48 h.
The test system of data set [3] is Plasmodium falciparum. Nature of the data set: Antimalarial activity against laboratory adapted artemisinin-resistant Plasmodium falciparum RT4974 assessed as inhibition of the survival of ring-stage parasite measured after 66 hrs by ring survival assay. In kind it is functional, organism-based.
In a further data set the test system is Cytochrome P450. Nature of the data set: Inhibition of CYP450 (unknown origin). To be noted: human. In kind it is ADME, protein assay.
The subject of data set [4] is Plasmodium berghei. Nature of the data set: Antimalarial activity against blood stage of Plasmodium berghei infected in BALB/c mouse assessed as suppression of parasite growth at 12.5 mg/kg, ip administered once daily for 4 consecutive days measured on day 6 by Giemsa staining based assay. In kind it is functional, organism-based. The note with it: time 6.0 day.
Data set [5] relates to Plasmodium falciparum. Nature of the data set: Antimalarial activity against chloroquine, pyrimethamine and mefloquine-resistant Plasmodium falciparum Dd2 assessed as parasite growth inhibition incubated for 48 hrs by SYBR green DNA fluorescent dye-binding assay. In kind it is functional, organism-based. To be noted: Dd2, 48 h.
Data set [6] deals with Plasmodium falciparum. Nature of the data set: Antimalarial activity against chloroquine and pyrimethamine-resistant Plasmodium falciparum 7G8 assessed as parasite growth inhibition incubated for 48 hrs by SYBR green DNA fluorescent dye-binding assay. In kind it is functional, organism-based. To be noted: 7G8, 48 h.
The nature of data set [7]: Drug degradation in human plasma. In kind it is ADME, cell-free.
Data set [8] concerns the target T1, Heme ligase (Plasmodium falciparum (isolate 3D7)) (UniProt Q8IL04).
T1 sequence (whole entry): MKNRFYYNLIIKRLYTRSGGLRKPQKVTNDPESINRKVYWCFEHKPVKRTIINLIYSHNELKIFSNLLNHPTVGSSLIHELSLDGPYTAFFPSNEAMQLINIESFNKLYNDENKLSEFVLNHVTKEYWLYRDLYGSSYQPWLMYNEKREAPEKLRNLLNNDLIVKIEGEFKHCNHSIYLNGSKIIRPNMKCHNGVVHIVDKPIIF
Nature of the data set: Inhibition of recombinant Plasmodium falciparum heme detoxification protein expressed in Escherichia coli M15 assessed as reduction in hemozoin formation using heme as substrate measured after 3 hrs relative to control. The note with it: concentration not given here.

Data set [9] deals with Plasmodium berghei. Nature of the data set: Antimalarial activity against blood stage of Plasmodium berghei infected in BALB/c mouse assessed as suppression of parasite growth at 12.5 mg/kg, ip administered once daily for 4 consecutive days measured on day 5 by Giemsa staining based assay. In kind it is functional, organism-based. The note with it: time 5.0 day.
Data set [10] relates to Plasmodium berghei. Nature of the data set: Antimalarial activity against blood stage of Plasmodium berghei infected in BALB/c mouse assessed as mouse survival time at 12.5 mg/kg, ip administered once daily for 4 consecutive days (reference value: 12 to 15 days). The note with it: time 4 day. In kind it is functional.
For data set [11], the system named is Plasmodium falciparum. Nature of the data set: Antimalarial activity against asexual blood stage of Plasmodium falciparum assessed as darkly stained dead parasites at EC50 observed at 60 hrs post invasion. In kind it is functional, organism-based.
The test system of data set [12] is Plasmodium berghei. Nature of the data set: Antimalarial activity against blood stage of Plasmodium berghei infected in BALB/c mouse assessed as parasite clearance at 12.5 mg/kg, ip administered once daily for 4 consecutive days measured on day 10 by Giemsa staining based assay (reference value: 0%). In kind it is functional. The note with it: time 10 day.
The next data set has as its system A549. Nature of the data set: Cytotoxicity against human A549 cells assessed as reduction in cell viability measured after 24 hrs by WST-1 assay. The note with it: A549, 24 h. In kind it is cell-based. Background: Tetrazolium dyes change colour on reduction, which living cells bring about.
Data set [13] deals with Plasmodium falciparum. Nature of the data set: Antimalarial activity against asexual blood stage of Plasmodium falciparum assessed as abnormalities in food vacuole observed upto 60 hrs post invasion. In kind it is functional, organism-based. To be noted: time hrs <=60.

Structures are written as SMILES. pEC50: −log10 of the molar value. The source made the active and inactive calls. The calls are words filed in the database; no cut-off is given here.

Take `CCOP(=O)(/C=C/C(NC(=O)[C@H](Cc1ccccc1)NC(=O)[C@H](CO[C@H]1O[C@@H]2O[C@@]3(C)CC[C@H]4[C@H](C)CC[C@@H]([C@H]1C)[C@@]24OO3)NC(=O)OCc1ccccc1)c1ccccc1)OCC` (stereo not given in full): the outcome with Plasmodium falciparum [1], in the data set on Plasmodium falciparum [3], in the data set on Plasmodium berghei [4], in the data set on Plasmodium falciparum [11] and in the data set with Plasmodium falciparum [13] was Active. In addition, the pEC50 in the data set with Plasmodium falciparum [2] is 8.57; in the data set with Plasmodium falciparum [5], 8.72; with Plasmodium falciparum [6], 9.33; in the data set with A549 it was 4.84. Also, the “inhibition (INH)” value in the data set on Cytochrome P450 is recorded as “Active”. Besides, in data set [7], the Stabilty entry is on record as “Unstable”. Further, the inhibition in data set [8] was 80%. In the data set with Plasmodium berghei [9], the result was inactive. In addition, the Survival with Plasmodium berghei [10] is greater than 60 days. Moreover, the Activity with Plasmodium berghei [12] is listed as 80%.

For the origin of these results see ChEMBL document CHEMBL4842313, “Combating multi-drug resistant malaria parasite by inhibiting falcipain-2 and heme-polymerization: Artemisinin-peptidyl vinyl phosphonate hybrid molecules as new antimalarials” (Eur J Med Chem, 2021).
